The source of these data is ChEMBL document CHEMBL3217603, “Synthesis and NMDA receptor affinity of dexoxadrol analogues with modifications in position 4 of the piperidine ring” (Medchemcomm, 2010).

Experiment [1] relates to Sigma-2 receptor (Rattus norvegicus). As to the kind of experiment: Displacement of [3H]-di-o-tolylguanidine from sigma-2 receptor in rat liver homogenate at 1 uM by liquid scintillation counting.
The species entered for a further experiment is Sus scrofa. The experiment is described as follows: Displacement of [3H]-(+)-MK801 from pig brain phencyclidine binding site of NMDA receptor at 1 uM by scintillation counting.
Experiment [2] in a line: Displacement of [3H]-(+)-MK801 from pig brain phencyclidine binding site of NMDA receptor by scintillation counting. Further details: species or system Sus scrofa.
Experiment [3] has as its target Sigma-2 receptor (Rattus norvegicus). As to the kind of experiment: Displacement of [3H]-di-o-tolylguanidine from sigma-2 receptor in rat liver homogenate by liquid scintillation counting.

Regarding `N[C@H]1CCN[C@H]([C@@H]2COC(c3ccccc3)(c3ccccc3)O2)C1` (racemic), the inhibition in experiment [1] stood at 13%; in the experiment listed under Sus scrofa, 25%. With `O=C1CCN[C@H]([C@@H]2COC(c3ccccc3)(c3ccccc3)O2)C1` (racemic), in the experiment filed under Sus scrofa, the inhibition stood at 84%. Take `CN[C@H]1CCN(C(=O)OCc2ccccc2)[C@H]([C@H]2COC(c3ccccc3)(c3ccccc3)O2)C1` (racemic): the results for the inhibition (in experiment [1]; in the experiment listed under Sus scrofa) were 35% and 6%, respectively. `O[C@H]1CCN[C@H]([C@H]2COC(c3ccccc3)(c3ccccc3)O2)C1` (racemic) yielded an inhibition constant (Ki) in experiment [2] of 44 nM. The same molecule showed an inhibition in experiment [1] of 13%. With `O[C@H]1CCN[C@H]([C@@H]2COC(c3ccccc3)(c3ccccc3)O2)C1` (racemic), the inhibition in experiment [1] worked out at 30%; in the experiment filed under Sus scrofa, 3%. Turning to `O=C(OCc1ccccc1)N1CC[C@@H](NCc2ccccc2)C[C@H]1[C@H]1COC(c2ccccc2)(c2ccccc2)O1` (racemic), the inhibition amounted to 14% in experiment [1] and 20% in the experiment filed under Sus scrofa. For `N[C@H]1CCN[C@H]([C@H]2COC(c3ccccc3)(c3ccccc3)O2)C1` (racemic), in that order: 17% and 17%. For `CN[C@H]1CCN[C@H]([C@H]2COC(c3ccccc3)(c3ccccc3)O2)C1` (racemic), in that order: 37% and 30%. Take `O=C(OCc1ccccc1)N1CC[C@H](NCc2ccccc2)C[C@H]1[C@@H]1COC(c2ccccc2)(c2ccccc2)O1` (racemic): in the experiment listed under Sus scrofa, the inhibition stood at 30%. Besides, in experiment [3], the Ki is listed as 442 nM. As for `CN[C@H]1CCN(C(=O)OCc2ccccc2)[C@H]([C@@H]2COC(c3ccccc3)(c3ccccc3)O2)C1` (racemic), the inhibition in experiment [1] amounted to 18%; in the experiment filed under Sus scrofa, 7%. Take `CN[C@@H]1CCN(C(=O)OCc2ccccc2)[C@H]([C@@H]2COC(c3ccccc3)(c3ccccc3)O2)C1` (racemic): the inhibition came out at 28% in experiment [1] and 7% in the experiment listed under Sus scrofa. With `CO[C@@H]1CCN[C@H]([C@H]2COC(c3ccccc3)(c3ccccc3)O2)C1` (racemic), the inhibition amounted to 5% in experiment [1] and 49% in the experiment listed under Sus scrofa. In experiment [2], `O[C@@H]1CCN[C@H]([C@H]2COC(c3ccccc3)(c3ccccc3)O2)C1` (racemic) registered a Ki of 527 nM. Further, in experiment [1], the inhibition was 2%.

Regarding `N[C@@H]1CCN[C@H]([C@H]2COC(c3ccccc3)(c3ccccc3)O2)C1` (racemic), the inhibition in experiment [1] came out at 26%; in the experiment listed under Sus scrofa it was 44%.

With `O=C(OCc1ccccc1)N1CC[C@@H](NCc2ccccc2)C[C@H]1[C@@H]1COC(c2ccccc2)(c2ccccc2)O1` (racemic), the inhibition is 23% in experiment [1] and 8% in the experiment filed under Sus scrofa. For the molecule `CO[C@H]1CCN[C@H]([C@H]2COC(c3ccccc3)(c3ccccc3)O2)C1` (racemic), in experiment [2], affinity was put at a Ki of 981 nM. The same molecule registered an inhibition in experiment [1] of 9%.

As for `O[C@@H]1CCN[C@H]([C@@H]2COC(c3ccccc3)(c3ccccc3)O2)C1` (racemic), the inhibition (in experiment [1]; in the experiment listed under Sus scrofa) was 0% in each case. For `N[C@@H]1CCN[C@H]([C@@H]2COC(c3ccccc3)(c3ccccc3)O2)C1` (racemic), the inhibition in experiment [1] was determined as 15%; in the experiment listed under Sus scrofa, 26%.

With `CN[C@H]1CCN[C@H]([C@@H]2COC(c3ccccc3)(c3ccccc3)O2)C1` (racemic), the inhibition in the experiment filed under Sus scrofa worked out at 16%. The molecule also yielded a Ki in experiment [3] of 3670 nM. On to `CO[C@@H]1CCN[C@H]([C@@H]2COC(c3ccccc3)(c3ccccc3)O2)C1` (racemic), for which the inhibition worked out at 18% in experiment [1] and 37% in the experiment filed under Sus scrofa. On to `O=C(OCc1ccccc1)N1CC[C@H](NCc2ccccc2)C[C@H]1[C@H]1COC(c2ccccc2)(c2ccccc2)O1` (racemic), for which the inhibition in experiment [1] is 8%; in the experiment listed under Sus scrofa it was 15%. `O=C1CCN[C@H]([C@H]2COC(c3ccccc3)(c3ccccc3)O2)C1` (racemic): the inhibitory constant (Ki) in experiment [2] turned out to be 470 nM. Take `CO[C@H]1CCN[C@H]([C@@H]2COC(c3ccccc3)(c3ccccc3)O2)C1` (racemic): the values for the inhibition (in experiment [1]; in the experiment listed under Sus scrofa) were 23% and 21%, respectively. In the same order, the values of `CN[C@@H]1CCN[C@H]([C@@H]2COC(c3ccccc3)(c3ccccc3)O2)C1` (racemic) are 44% and 16%. For `CN[C@@H]1CCN[C@H]([C@H]2COC(c3ccccc3)(c3ccccc3)O2)C1` (racemic), the inhibition came to 12% in experiment [1] and 40% in the experiment listed under Sus scrofa. For `CN[C@@H]1CCN(C(=O)OCc2ccccc2)[C@H]([C@H]2COC(c3ccccc3)(c3ccccc3)O2)C1` (racemic), in that order: 42% and 10%.
